Laboratory results published in US20100062462A1, “IMMUNODEFICIENCY VIRUSES” (priority 2005, published 2010).

Tests used:
HIV protease = biological target: T1, HIV protease (Human immunodeficiency virus type 1 group M subtype B, UniProt P04585); experiment: casp8p41 production in Jurkat T cells transfected with HIV protease, flow cytometry; format: cell-based; settings: Jurkat T cells transfected with pEYFP-protease; 7 μM Nelfinavir or 20 μM Z-VAD-fmk added immediately following transfection; assessed the following morning
T1 construct: Jurkat T cells were transfected with 1 μg of pEYFP-protease per 10^7 cells; EYFP; expressed in transfected cells; host or cells: Jurkat T cells
Experimental: To determine whether casp8p41 is produced specifically as a consequence of HIV-PR activity, as opposed to being produced as a consequence of apoptotic processing of procaspase 8, casp8p41 expression was assessed following HIV-PR transfection in the presence or absence of HIV-PR inhibitor, Nelfinavir, or the pan-caspase inhibitor, z-VAD-fmk. Jurkat T cells were transfected with 1 μg of pEYFP-protease per 10^7 cells using a square wave electroporator (BTX) at 320 V for 10 msec. Immediately following transfection, 7 μM Nelfinavir or 20 μM Z-VAD-fmk was added. The following morning, casp8p41 was assessed by flow cytometry.

Jurkat T cells = experiment: active caspase-3 and casp8p41 in Jurkat T cells treated with apoptotic stimuli, flow cytometry; format: cell-based; settings: for casp8p41 immunoreactivity: same stimuli, 10 μM campothecin for 8 hours; for apoptosis, as determined by activation of caspase-3: 50 ng/mL TNF-α plus 5 μg/mL cycloheximide, 100 ng/mL SuperKillerTRAIL, 250 ng/mL anti-Fas CH-11, 2 μM Tat, 1 μg/mL gp120 for 8 hours, 10 μM Vpr-derived peptide 4 hours
Experimental: It was determined whether casp8p41 is generated in response to other apoptotic stimuli. Jurkat T cells (10^6) were treated with 10 μM campothecin, 100 ng/mL SuperKillerTRAIL™ (Axxora), 250 ng/mL anti-Fas antibody CH-11 (Upstate Cell Signaling Solutions), 50 ng/mL TNF-α (R&D Systems) plus 5 μg/mL cycloheximide, 2 μM HIV Tat (NIH AIDS Research and Reference Reagent Program), 1 μg/mL of HIV gp120 (ImmunoDiagnostic), or vehicle controls for 8 hours at 37° C. For Vpr-induced apoptosis, Jurkat T cells were incubated with isotonic glucose-Hepes buffer (2.4% glucose, 13 mM Hepes, 68 mM NaCl, 1.3 mM KCl, 4 mM Na2HPO4, and 0.7 mM KH2PO4, pH 7.2) alone or containing 10 μM of Vpr-derived peptide (amino acids 61-75; NIH AIDS Research and Reference Reagent Program) for 4 hours at 37° C. After the incubation, cells were washed in PBS and incubated overnight at 37° C. After incubation for the indicated times, cells were fixed in 2% paraformaldehyde at 4° C. overnight. To determine the presence of casp8p41 on apoptotic cells, cells were permeabilized with PBS+0.1% NP-40 on ice for two minutes. Cells were then incubated with the mouse anti-casp8p41 antibody, followed by PE-labeled goat anti-mouse antibody (Becton Dickinson ImmunoCytochemistry) and FITC-labeled rabbit anti-active caspase-3 antibody.

## Cc1c(O)cccc1C(=O)N[C@@H](CSc1ccccc1)[C@H](O)CN1C[C@H]2CCCC[C@H]2C[C@H]1C(=O)NC(C)(C)C [Nelfinavir]
HIV protease
  casp8p41 production: abrogated casp8p41 production

## CC[C@@]1(O)C(=O)OCc2c1cc1n(c2=O)Cc2cc3ccccc3nc2-1 [campothecin]
Jurkat T cells
  casp8p41 immunoreactivity: casp8p41 was not produced

## TNF-α
Jurkat T cells
  apoptosis, as determined by activation of caspase-3: did indeed induce apoptosis
  casp8p41 immunoreactivity: did not generate casp8p41 immunoreactivity

## TRAIL
Jurkat T cells
  apoptosis, as determined by activation of caspase-3: did indeed induce apoptosis
  casp8p41 immunoreactivity: did not generate casp8p41 immunoreactivity

## Z-VAD-fmk
HIV protease
  casp8p41 production: did not alter casp8p41 production
